This test concerns the target Serotonin 5HT7 receptors (Homo sapiens (Human), UniProt P34969). As to the kind of experiment: Radiolabel Binding Studies for Serotonin 5HT7 receptors.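 Also: displacement of a tritiated radioligand from membranes of stably transfected cells carrying recombinant 5-HT7 receptor, with filter-bound radioactivity measured by scintillation counting.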 To be noted: read-out: 5-HT7 % inhib @ 10 uM.
Serotonin 5HT7 receptors, sequence (P34969 whole entry): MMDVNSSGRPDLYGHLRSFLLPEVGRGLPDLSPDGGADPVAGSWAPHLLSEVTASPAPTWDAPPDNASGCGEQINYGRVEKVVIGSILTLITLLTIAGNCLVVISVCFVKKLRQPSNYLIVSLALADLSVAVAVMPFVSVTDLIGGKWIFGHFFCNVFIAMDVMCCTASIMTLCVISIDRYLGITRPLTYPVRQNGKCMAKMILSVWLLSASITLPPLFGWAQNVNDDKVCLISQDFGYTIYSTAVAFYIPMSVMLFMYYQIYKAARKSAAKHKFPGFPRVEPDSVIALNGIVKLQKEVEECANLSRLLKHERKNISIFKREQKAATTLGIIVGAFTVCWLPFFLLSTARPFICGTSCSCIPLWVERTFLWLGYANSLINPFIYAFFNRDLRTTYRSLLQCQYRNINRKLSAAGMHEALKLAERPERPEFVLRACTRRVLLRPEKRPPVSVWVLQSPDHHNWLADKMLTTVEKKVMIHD
Experimental: Radiolabel Binding Studies for Serotonin 5HT7 Receptors, Method 1:
Eleven dilutions (5× assay concentration) of the compound of the disclosure and chlorpromazine are prepared in the Assay Buffer by serial dilution to yield final corresponding assay concentrations ranging from 10 pM to 10 μM.
A stock concentration of 5 nM [^3H]LSD (lysergic acid diethyl amide) is prepared in 50 mM Tris-HCl, 10 mM MgCl2, 1 mM EDTA, pH 7.4 (Assay Buffer). Aliquots (50 μl) of radioligand are dispensed into the wells of a 96-well plate containing 100 μl of Assay Buffer. Duplicate 50-μl aliquots of the compound of the disclosure test and chlorpromazine positive control reference compound serial dilutions are added.
Membrane fractions of cells expressing recombinant 5HT7 receptors (50 μL) are dispensed into each well. The membranes are prepared from stably transfected cell lines expressing 5HT7 receptors cultured on 10-cm plates by harvesting PBS-rinsed monolayers, resuspending and lysing in chilled, hypotonic 50 mM Tris-HCl, pH 7.4, centrifuging at 20,000×g, decanting the supernatant and storing at −80° C.; the membrane preparations are resuspended in 3 ml of chilled Assay Buffer and homogenized by several passages through a 26 gauge needle before using in the assay.
The 250-μl reactions are incubated at room temperature for 1.5 hours, then harvested by rapid filtration onto 0.3% polyethyleneimine-treated, 96-well filter mats using a 96-well Filtermate harvester. Four rapid 500-μl washes are performed with chilled Assay Buffer to reduce non-specific binding. The filter mats are dried, then scintillant is added to the filters and the radioactivity retained on the filters is counted in a Microbeta scintillation counter.
Raw data (dpm) representing total radioligand binding (i.e., specific+non-specific binding) are plotted as a function of the logarithm of the molar concentration of the competitor (i.e., test or reference compound).
Regarding `CCC1(CC)CC(CCN2CCN(c3ccc(O)cc3)CC2)OC1=O` (stereo not shown) [Entry 1], the inhibition at 10 µM turned out to be 95.9%.
As to `CCC1(CC)CC(CCN2CCN(c3ccc([N+](=O)[O-])cc3)CC2)OC1=O` (stereo not shown) [Entry 2], the inhibition at 10 µM is 93.3%.
In the case of `CCC1(CC)CC(CCN2CCN(c3ccc(C#N)cc3)CC2)OC1=O` (stereo not shown) [Entry 3], the inhibition at 10 µM came to 88.4%.
For `CCC1(CC)CC(CCN2CCN(c3ccc(C)cc3)CC2)OC1=O` (stereo not shown) [Entry 4] the value was 96.6%; for `CCC1(CC)CC(CCN2CCN(CCc3ccccc3)CC2)OC1=O` (stereo not shown) [Entry 5], 53.1%.
Consider `CCC1(CC)CC(CCN2CCN(c3ccccc3O)CC2)OC1=O` (stereo not shown) [Entry 6], for which the inhibition at 10 µM amounted to 99.9%.
In the case of `CCC1(CC)CC(CCN2CCN(c3cccc(OC)c3)CC2)OC1=O` (stereo not shown) [Entry 7], the inhibition at 10 µM was 94.8%.
On to `CCC1(CC)CC(CCN2CCN(c3cccc(O)c3)CC2)OC1=O` (stereo not shown) [Entry 8], for which the inhibition at 10 µM was determined as 93.6%.
For the compound `CCC1(CC)CC(CCN2CCN(c3ccccn3)CC2)OC1=O` (stereo not shown) [Entry 9], the inhibition at 10 µM came out at 101%.
In the case of `CCC1(CC)CC(CCN2CCN(c3c(C)cccc3C)CC2)OC1=O` (stereo not shown) [Entry 10] it was 70.4%; in that of `CCC1(CC)CC(CCN2CCN(c3ccccc3)CC2)OC1=O` (stereo not shown) [Entry 11], 95.4%; in that of `CCC1(CC)CC(CCN2CCN(c3ccc(N)cc3)CC2)OC1=O` (stereo not shown) [Entry 12], 80.9%.
Regarding `CCC1(CC)CC(CCN2CCN(C3CCCCC3)CC2)OC1=O` (stereo not shown) [Entry 13], the inhibition at 10 µM stood at 82.5%.
For `CCC1(CC)CC(CCN2CCN(c3ccccc3C(C)C)CC2)OC1=O` (stereo not shown) [Entry 14], the inhibition at 10 µM turned out to be 54.3%.
Consider `CCC1(CC)CC(CCN2CCN(C(c3ccccc3)c3ccccc3)CC2)OC1=O` (stereo not shown) [Entry 15], for which the inhibition at 10 µM was 58.4%.
Consider `CCC1(CC)CC(CCN2CCN(c3ccccc3C)CC2)OC1=O` (stereo not shown) [Entry 16], for which the inhibition at 10 µM turned out to be 58.2%.
For `CCC1(CC)CC(CCN2CCN(c3ccc(C)cc3C)CC2)OC1=O` (stereo not shown) [Entry 17] the value was 56.2%; for `CCC1(CC)CC(CCN2CCc3ccccc3C2)OC1=O` (stereo not shown) [Entry 18], 82%; for `COc1ccc(N2CCN(CCC3CC4(CCCCC4)C(=O)O3)CC2)cc1` (stereo not shown) [Entry 20], 78.1%.
For `O=C1OC(CCN2CCN(c3cccc(O)c3)CC2)CC12CCCCC2` (stereo not shown) [Entry 21] the value was 86.8%; for `O=C1OC(CCN2CCN(c3ccccc3)CC2)CC12CCCCC2` (stereo not shown) [Entry 22], 98%; for `COc1cccc(N2CCN(CCC3CC4(CCCCC4)C(=O)O3)CC2)c1` (stereo not shown) [Entry 23], 93.7%.
Consider `COc1ccccc1N1CCN(CCC2CC3(CCCCC3)C(=O)O2)CC1` (stereo not shown) [Entry 24], for which the inhibition at 10 µM came to 90.7%.
With `O=C1OC(CCN2CCN(c3ccccc3O)CC2)CC12CCCCC2` (stereo not shown) [Entry 25], the inhibition at 10 µM worked out at 93.3%.
Take `O=C1OC(CCN2CCN(c3ccccn3)CC2)CC12CCCCC2` (stereo not shown) [Entry 26]: the inhibition at 10 µM is 97.4%.
Regarding `O=C1OC(CCN2CCN(c3ccccc3Cl)CC2)CC12CCCCC2` (stereo not shown) [Entry 27], the inhibition at 10 µM was 97%.
On to `O=C1OC(CCN2CCN(c3ccc(Cl)cc3)CC2)CC12CCCCC2` (stereo not shown) [Entry 28], for which the inhibition at 10 µM came out at 98%.
Take `O=C1OC(CCN2CCN(c3ccc(C(F)(F)F)cc3)CC2)CC12CCCCC2` (stereo not shown) [Entry 29]: the inhibition at 10 µM worked out at 96%.
As for `O=C1OC(CCN2CCN(c3ccncc3)CC2)CC12CCCCC2` (stereo not shown) [Entry 30], the inhibition at 10 µM stood at 46.5%.
`O=C1OC(CCN2CCN(c3ccc(O)cc3)CC2)CC12CCCCC2` (stereo not shown) [Entry 31]: the inhibition at 10 µM is 54.1%.
As for `O=C1OC(CCN2CCN(c3cccnc3)CC2)CC12CCCCC2` (stereo not shown) [Entry 32], the inhibition at 10 µM stood at 76.3%.
In the case of `N#Cc1ccc(N2CCN(CCC3CC4(CCCCC4)C(=O)O3)CC2)cc1` (stereo not shown) [Entry 33] it was 83.4%; in that of `N#Cc1ccc(N2CCN(CCC3CC4(CCCCC4)C(=O)O3)CC2)nc1` (stereo not shown) [Entry 34], 64.2%.
For `O=C1OC(CCN2CCN(c3ccc(C(F)(F)F)cn3)CC2)CC12CCCCC2` (stereo not shown) [Entry 35], the inhibition at 10 µM is 91.1%.
For `O=C1OC(CCN2CCN(c3ccc(Cl)cn3)CC2)CC12CCCCC2` (stereo not shown) [Entry 36], the inhibition at 10 µM was 96.7%.
For the compound `CCC1(CC)CC(CCN2CCC(C(O)(c3ccccc3)c3ccccc3)CC2)OC1=O` (stereo not shown) [Entry 37], the inhibition at 10 µM worked out at 69%.
In the case of `CCC1(CC)CC(CCN2CCC(=C(c3ccccc3)c3ccccc3)CC2)OC1=O` (stereo not shown) [Entry 38] it was 96.5%; in that of `CC(C)c1ccccc1N1CCN(CCC2CC3(CCCC3)C(=O)O2)CC1` (stereo not shown) [Entry 39], 96.1%; in that of `CC(C)(C)c1ccccc1N1CCN(CCC2CC3(CCCC3)C(=O)O2)CC1` (stereo not shown) [Entry 40], 81.7%.
In the case of `CC(C)c1cccc(C(C)C)c1N1CCN(CCC2CC3(CCCC3)C(=O)O2)CC1` (stereo not shown) [Entry 41] it was 25.2%; in that of `O=C1OC(CCN2CCN(c3ccccc3N3CCOCC3)CC2)CC12CCCC2` (stereo not shown) [Entry 42], 97.2%.
For `CCC1(CC)CC(CCN2CCN(c3ccccc3OC)CC2)OC1=O` (stereo not shown) [Entry 43] the value was 95.3%; for `Cc1ccc(N2CCN(CC3CC(c4ccccc4)(c4ccccc4)C(=O)O3)CC2)cc1` (stereo not shown) [Entry 44], 40.8%.
`Cc1ccc(N2CCN(CCC3CC(c4ccccc4)(c4ccccc4)C(=O)O3)CC2)cc1` (stereo not shown) [Entry 45]: the inhibition at 10 µM was determined as 97.4%.
For `Cc1ccc(N2CCN(CCCC3CC(c4ccccc4)(c4ccccc4)C(=O)O3)CC2)cc1` (stereo not shown) [Entry 46] the value was 96.8%.
As for `CCC1(CC)CC(CCN2CCC(c3ccccc3)CC2)OC1=O` (stereo not shown) [Entry 47], the inhibition at 10 µM was 29.3%.

Source of the values: US10239868B2, “5-hydroxytryptamine receptor 7 activity modulators and their method of use” (TEMPLE UNIVERSITY OF THE COMMONWEALTH SYSTEM OF HIGHER …, priority 2013, dated 2019).
